Test results taken from ChEMBL document CHEMBL5724914, “Linking interpersonal differences in gut microbiota composition and drug biotransformation activity” (2024).

Legend:
[1] = The drug is tested on WLS-082 corresponding to human gut metagenome with ENA study accession number: PRJEB37062 and ENA sample accession number: ERS12561751 for biotransformation under anaerobic condition. The drug concentrations were measured over 9 timepoints collected between 0 and 24 hours of incubation by liquid-chromatography-coupled mass spectrometry (LC–MS); details: 2 µM
[2] = The drug is tested on WLS-010 corresponding to human gut metagenome with ENA study accession number: PRJEB37062 and ENA sample accession number: ERS12561743 for biotransformation under anaerobic condition. The drug concentrations were measured over 9 timepoints collected between 0 and 24 hours of incubation by liquid-chromatography-coupled mass spectrometry (LC–MS); details: 2 µM
[3] = The drug is tested on WLS-350 corresponding to human gut metagenome with ENA study accession number: PRJEB37062 and ENA sample accession number: ERS12561789 for biotransformation under anaerobic condition. The drug concentrations were measured over 9 timepoints collected between 0 and 24 hours of incubation by liquid-chromatography-coupled mass spectrometry (LC–MS); details: 2 µM
[4] = The drug is tested on Z-006 corresponding to mouse gut metagenome with ENA study accession number: PRJEB37062 and ENA sample accession number: ERS12561806 for biotransformation under anaerobic condition. The drug concentrations were measured over 9 timepoints collected between 0 and 24 hours of incubation by liquid-chromatography-coupled mass spectrometry (LC–MS); details: 2 µM
[5] = human gut metagenome, 24 h, 2 µM
[6] = The drug is tested on WLS-052 corresponding to human gut metagenome with ENA study accession number: PRJEB37062 and ENA sample accession number: ERS12561747 for biotransformation under anaerobic condition. The drug concentrations were measured over 9 timepoints collected between 0 and 24 hours of incubation by liquid-chromatography-coupled mass spectrometry (LC–MS); details: 2 µM
[7] = human gut metagenome, 24 h, 2 µM; remark: listed apart in the source
[8] = The drug is tested on Z-013 corresponding to rabbit gut metagenome with ENA study accession number: PRJEB37062 and ENA sample accession number: ERS12561813 for biotransformation under anaerobic condition. The drug concentrations were measured over 9 timepoints collected between 0 and 24 hours of incubation by liquid-chromatography-coupled mass spectrometry (LC–MS); details: 2 µM
[9] = human gut metagenome, 24 h, 2 µM; remark: listed apart in the source
[10] = The drug is tested on WLS-039 corresponding to human gut metagenome with ENA study accession number: PRJEB37062 and ENA sample accession number: ERS12561746 for biotransformation under anaerobic condition. The drug concentrations were measured over 9 timepoints collected between 0 and 24 hours of incubation by liquid-chromatography-coupled mass spectrometry (LC–MS); details: 2 µM
[11] = human gut metagenome, 24 h, 2 µM; remark: listed apart in the source
[12] = The drug is tested on Z-011 corresponding to mouse gut metagenome with ENA study accession number: PRJEB37062 and ENA sample accession number: ERS12561811 for biotransformation under anaerobic condition. The drug concentrations were measured over 9 timepoints collected between 0 and 24 hours of incubation by liquid-chromatography-coupled mass spectrometry (LC–MS); details: 2 µM
[13] = human gut metagenome, 24 h, 2 µM; remark: listed apart in the source
[14] = human gut metagenome, 24 h, 2 µM; remark: listed apart in the source
[15] = The drug is tested on WLS-006 corresponding to human gut metagenome with ENA study accession number: PRJEB37062 and ENA sample accession number: ERS12561741 for biotransformation under anaerobic condition. The drug concentrations were measured over 9 timepoints collected between 0 and 24 hours of incubation by liquid-chromatography-coupled mass spectrometry (LC–MS); details: 2 µM
[16] = human gut metagenome, 24 h, 2 µM; remark: listed apart in the source
[17] = The drug is tested on WLS-370 corresponding to human gut metagenome with ENA study accession number: PRJEB37062 and ENA sample accession number: ERS12561793 for biotransformation under anaerobic condition. The drug concentrations were measured over 9 timepoints collected between 0 and 24 hours of incubation by liquid-chromatography-coupled mass spectrometry (LC–MS); details: 2 µM
[18] = The drug is tested on WLS-007 corresponding to human gut metagenome with ENA study accession number: PRJEB37062 and ENA sample accession number: ERS12561742 for biotransformation under anaerobic condition. The drug concentrations were measured over 9 timepoints collected between 0 and 24 hours of incubation by liquid-chromatography-coupled mass spectrometry (LC–MS); details: 2 µM
[19] = human gut metagenome, 24 h, 2 µM; remark: listed apart in the source
[20] = human gut metagenome, 24 h, 2 µM; remark: listed apart in the source
Note: call rule not given here.

CC(=O)OCC(CCn1cnc2cnc(N)nc21)COC(C)=O [FAMCICLOVIR]
Bacterial Biotransformation [1]: Compound metabolized
Bacterial Biotransformation [2]: Compound metabolized
Bacterial Biotransformation [3]: Compound metabolized
Bacterial Biotransformation [4]: Compound metabolized
Bacterial Biotransformation [5]: Compound metabolized
Bacterial Biotransformation [6]: Compound metabolized
Bacterial Biotransformation [7]: Compound metabolized
Bacterial Biotransformation [8]: Compound NOT metabolized
Bacterial Biotransformation [9]: Compound metabolized
Bacterial Biotransformation [10]: Compound metabolized
Bacterial Biotransformation [11]: Compound metabolized
Bacterial Biotransformation [12]: Compound metabolized
Bacterial Biotransformation [13]: Compound metabolized
Bacterial Biotransformation [14]: Compound metabolized
Bacterial Biotransformation [15]: Compound metabolized
Bacterial Biotransformation [16]: Compound metabolized
Bacterial Biotransformation [17]: Compound metabolized
Bacterial Biotransformation [18]: Compound metabolized
Bacterial Biotransformation [19]: Compound NOT metabolized
Bacterial Biotransformation [20]: Compound metabolized

O=C(O)CCC(=O)O.O=C(O[C@H]1CN2CCC1CC2)N1CCc2ccccc2[C@@H]1c1ccccc1 [SOLIFENACIN SUCCINATE]
Bacterial Biotransformation [1]: Compound metabolized
Bacterial Biotransformation [2]: Compound metabolized
Bacterial Biotransformation [3]: Compound metabolized
Bacterial Biotransformation [4]: Compound NOT metabolized
Bacterial Biotransformation [5]: Compound NOT metabolized
Bacterial Biotransformation [6]: Compound NOT metabolized
Bacterial Biotransformation [7]: Compound metabolized
Bacterial Biotransformation [8]: Compound NOT metabolized
Bacterial Biotransformation [9]: Compound metabolized
Bacterial Biotransformation [10]: Compound metabolized
Bacterial Biotransformation [11]: Compound NOT metabolized
Bacterial Biotransformation [12]: Compound NOT metabolized
Bacterial Biotransformation [13]: Compound NOT metabolized
Bacterial Biotransformation [14]: Compound NOT metabolized
Bacterial Biotransformation [15]: Compound metabolized
Bacterial Biotransformation [16]: Compound metabolized
Bacterial Biotransformation [17]: Compound metabolized
Bacterial Biotransformation [18]: Compound metabolized
Bacterial Biotransformation [19]: Compound NOT metabolized
Bacterial Biotransformation [20]: Compound metabolized

CC(=O)Nc1ccc(OC(C)=O)cc1 [DIACETAMATE]
Bacterial Biotransformation [1]: Compound metabolized
Bacterial Biotransformation [2]: Compound metabolized
Bacterial Biotransformation [3]: Compound metabolized
Bacterial Biotransformation [4]: Compound metabolized
Bacterial Biotransformation [5]: Compound metabolized
Bacterial Biotransformation [6]: Compound metabolized
Bacterial Biotransformation [7]: Compound metabolized
Bacterial Biotransformation [8]: Compound metabolized
Bacterial Biotransformation [9]: Compound metabolized
Bacterial Biotransformation [10]: Compound metabolized
Bacterial Biotransformation [11]: Compound metabolized
Bacterial Biotransformation [12]: Compound metabolized
Bacterial Biotransformation [13]: Compound metabolized
Bacterial Biotransformation [14]: Compound metabolized
Bacterial Biotransformation [15]: Compound metabolized
Bacterial Biotransformation [16]: Compound metabolized
Bacterial Biotransformation [17]: Compound metabolized
Bacterial Biotransformation [18]: Compound metabolized
Bacterial Biotransformation [19]: Compound metabolized
Bacterial Biotransformation [20]: Compound metabolized
